Measurements taken from PMC11864979, “First-in-class ultralong-target-residence-time p38α inhibitors as a mitosis-targeted therapy for colorectal cancer” (Nature Cancer, 2025).
Read-outs that look alike come from different tables or passages of the source.

Tests used:
Experiment in all cases: selectivity profiling in a panel of 340 wild-type kinases (Reaction Biology Europe)
Type in all cases: binding
340 wild-type kinases [1] = target: T1, 340 wild-type kinases (Homo sapiens, UniProt Q04912)
T1 construct: purchased Reaction Biology Europe
T1 sequence (Q04912 25-1400): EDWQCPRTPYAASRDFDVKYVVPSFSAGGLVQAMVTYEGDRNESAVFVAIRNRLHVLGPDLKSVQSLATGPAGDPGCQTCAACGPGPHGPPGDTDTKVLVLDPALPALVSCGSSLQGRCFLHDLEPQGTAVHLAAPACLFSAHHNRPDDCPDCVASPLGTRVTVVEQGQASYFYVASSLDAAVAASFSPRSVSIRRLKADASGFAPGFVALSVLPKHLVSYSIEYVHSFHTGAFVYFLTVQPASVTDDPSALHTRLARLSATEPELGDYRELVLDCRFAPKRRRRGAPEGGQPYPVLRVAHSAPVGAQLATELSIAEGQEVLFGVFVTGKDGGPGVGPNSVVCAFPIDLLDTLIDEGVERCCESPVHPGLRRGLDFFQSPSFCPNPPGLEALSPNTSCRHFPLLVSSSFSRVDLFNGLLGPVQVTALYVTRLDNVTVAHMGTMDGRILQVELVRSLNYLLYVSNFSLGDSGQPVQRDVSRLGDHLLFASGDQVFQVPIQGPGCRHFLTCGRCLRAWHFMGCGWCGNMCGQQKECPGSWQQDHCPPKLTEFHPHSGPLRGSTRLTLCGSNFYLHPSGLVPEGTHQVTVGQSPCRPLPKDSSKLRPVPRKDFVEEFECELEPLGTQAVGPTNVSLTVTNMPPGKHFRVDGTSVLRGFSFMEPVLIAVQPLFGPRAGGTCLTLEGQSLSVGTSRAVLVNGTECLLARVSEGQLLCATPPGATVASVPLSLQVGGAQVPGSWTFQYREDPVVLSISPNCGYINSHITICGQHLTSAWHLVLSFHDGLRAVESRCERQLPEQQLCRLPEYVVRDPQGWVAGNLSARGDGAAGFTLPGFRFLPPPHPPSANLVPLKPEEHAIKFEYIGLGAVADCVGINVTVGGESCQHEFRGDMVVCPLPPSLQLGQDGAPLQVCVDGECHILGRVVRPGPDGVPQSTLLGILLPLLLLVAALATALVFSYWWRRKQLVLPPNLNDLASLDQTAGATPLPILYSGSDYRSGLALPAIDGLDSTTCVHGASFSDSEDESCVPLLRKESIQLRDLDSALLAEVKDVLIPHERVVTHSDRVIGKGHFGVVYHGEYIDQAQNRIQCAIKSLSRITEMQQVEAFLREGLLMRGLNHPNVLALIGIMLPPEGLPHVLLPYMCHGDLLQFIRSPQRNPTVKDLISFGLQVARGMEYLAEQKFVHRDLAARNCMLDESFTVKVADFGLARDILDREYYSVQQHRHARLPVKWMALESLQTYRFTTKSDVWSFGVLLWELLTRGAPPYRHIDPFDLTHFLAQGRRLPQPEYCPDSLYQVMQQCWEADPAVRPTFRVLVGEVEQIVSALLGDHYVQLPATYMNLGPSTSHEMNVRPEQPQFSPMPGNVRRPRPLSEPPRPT

340 wild-type kinases [2] = target: T2, 340 wild-type kinases (Homo sapiens, UniProt Q9Y2K2)
T2 construct: purchased Reaction Biology Europe

340 wild-type kinases [3] = target: T3, 340 wild-type kinases (Homo sapiens, UniProt Q16584)
T3 construct: purchased Reaction Biology Europe
T3 sequence (Q16584 whole entry): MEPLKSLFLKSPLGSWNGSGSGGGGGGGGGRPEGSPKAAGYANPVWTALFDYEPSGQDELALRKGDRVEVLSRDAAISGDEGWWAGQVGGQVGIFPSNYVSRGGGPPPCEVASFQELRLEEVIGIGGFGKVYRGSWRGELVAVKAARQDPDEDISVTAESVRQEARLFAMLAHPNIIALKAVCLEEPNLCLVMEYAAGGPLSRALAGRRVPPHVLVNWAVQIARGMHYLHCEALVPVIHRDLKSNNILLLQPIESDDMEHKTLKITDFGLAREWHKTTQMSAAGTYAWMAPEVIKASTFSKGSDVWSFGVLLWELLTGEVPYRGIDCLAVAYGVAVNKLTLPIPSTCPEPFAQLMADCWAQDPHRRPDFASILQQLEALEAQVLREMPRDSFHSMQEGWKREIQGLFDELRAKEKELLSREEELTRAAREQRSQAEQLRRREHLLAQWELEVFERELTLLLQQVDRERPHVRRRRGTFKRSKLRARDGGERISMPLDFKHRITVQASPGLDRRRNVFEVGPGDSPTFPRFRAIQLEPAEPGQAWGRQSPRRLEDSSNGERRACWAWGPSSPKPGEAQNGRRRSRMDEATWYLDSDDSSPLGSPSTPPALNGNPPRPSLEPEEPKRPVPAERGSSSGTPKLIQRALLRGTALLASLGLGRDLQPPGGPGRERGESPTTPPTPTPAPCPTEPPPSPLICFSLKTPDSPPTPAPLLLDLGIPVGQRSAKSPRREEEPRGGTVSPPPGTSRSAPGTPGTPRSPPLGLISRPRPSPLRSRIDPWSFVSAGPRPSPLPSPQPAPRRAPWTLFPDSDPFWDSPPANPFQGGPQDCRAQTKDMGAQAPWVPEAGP

340 wild-type kinases [4] = target: T4, 340 wild-type kinases (Homo sapiens, UniProt Q8IU85)
T4 construct: purchased Reaction Biology Europe
T4 sequence (Q8IU85 whole entry): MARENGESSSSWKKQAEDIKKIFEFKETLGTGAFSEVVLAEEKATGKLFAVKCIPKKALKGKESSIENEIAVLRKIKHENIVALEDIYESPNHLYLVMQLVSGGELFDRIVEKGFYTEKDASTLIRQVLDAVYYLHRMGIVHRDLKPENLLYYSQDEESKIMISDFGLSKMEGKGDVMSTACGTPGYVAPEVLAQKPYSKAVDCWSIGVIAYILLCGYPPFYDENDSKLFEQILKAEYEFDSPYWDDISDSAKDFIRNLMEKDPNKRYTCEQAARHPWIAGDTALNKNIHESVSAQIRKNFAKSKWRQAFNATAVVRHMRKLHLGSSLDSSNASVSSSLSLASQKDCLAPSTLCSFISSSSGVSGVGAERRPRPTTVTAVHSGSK

340 wild-type kinases [5] = target: T5, 340 wild-type kinases (Homo sapiens, UniProt Q9BXA7)
T5 construct: purchased Reaction Biology Europe
T5 sequence (Q9BXA7 1-367): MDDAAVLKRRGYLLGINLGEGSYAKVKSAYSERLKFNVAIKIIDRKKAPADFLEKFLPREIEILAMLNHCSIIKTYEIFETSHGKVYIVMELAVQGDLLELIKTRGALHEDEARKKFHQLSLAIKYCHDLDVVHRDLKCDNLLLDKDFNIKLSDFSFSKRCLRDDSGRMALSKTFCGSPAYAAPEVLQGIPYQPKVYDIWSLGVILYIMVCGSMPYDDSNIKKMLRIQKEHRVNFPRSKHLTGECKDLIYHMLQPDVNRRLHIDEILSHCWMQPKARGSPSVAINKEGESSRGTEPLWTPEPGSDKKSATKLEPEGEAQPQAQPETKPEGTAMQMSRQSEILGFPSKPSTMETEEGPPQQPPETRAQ

340 wild-type kinases [6] = target: T6, 340 wild-type kinases (Homo sapiens, UniProt P43250)
T6 construct: purchased Reaction Biology Europe
T6 sequence (P43250 whole entry): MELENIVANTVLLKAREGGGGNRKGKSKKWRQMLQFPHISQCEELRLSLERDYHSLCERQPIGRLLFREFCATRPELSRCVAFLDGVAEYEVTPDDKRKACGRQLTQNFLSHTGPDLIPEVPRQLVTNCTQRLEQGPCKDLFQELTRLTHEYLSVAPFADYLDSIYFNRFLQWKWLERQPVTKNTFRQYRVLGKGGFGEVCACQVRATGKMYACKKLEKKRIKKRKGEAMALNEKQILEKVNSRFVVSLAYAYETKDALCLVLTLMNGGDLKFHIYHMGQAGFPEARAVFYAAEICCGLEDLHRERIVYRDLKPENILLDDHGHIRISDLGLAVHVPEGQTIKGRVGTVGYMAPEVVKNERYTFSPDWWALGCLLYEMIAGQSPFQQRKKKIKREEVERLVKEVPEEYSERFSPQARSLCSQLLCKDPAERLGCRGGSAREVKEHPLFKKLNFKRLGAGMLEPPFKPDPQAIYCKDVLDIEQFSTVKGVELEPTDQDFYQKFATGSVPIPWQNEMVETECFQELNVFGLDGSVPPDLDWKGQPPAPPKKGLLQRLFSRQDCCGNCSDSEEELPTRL

340 wild-type kinases [7] = target: T7, 340 wild-type kinases (Homo sapiens, UniProt Q96GX5)
T7 construct: purchased Reaction Biology Europe
T7 sequence (Q96GX5 1-879): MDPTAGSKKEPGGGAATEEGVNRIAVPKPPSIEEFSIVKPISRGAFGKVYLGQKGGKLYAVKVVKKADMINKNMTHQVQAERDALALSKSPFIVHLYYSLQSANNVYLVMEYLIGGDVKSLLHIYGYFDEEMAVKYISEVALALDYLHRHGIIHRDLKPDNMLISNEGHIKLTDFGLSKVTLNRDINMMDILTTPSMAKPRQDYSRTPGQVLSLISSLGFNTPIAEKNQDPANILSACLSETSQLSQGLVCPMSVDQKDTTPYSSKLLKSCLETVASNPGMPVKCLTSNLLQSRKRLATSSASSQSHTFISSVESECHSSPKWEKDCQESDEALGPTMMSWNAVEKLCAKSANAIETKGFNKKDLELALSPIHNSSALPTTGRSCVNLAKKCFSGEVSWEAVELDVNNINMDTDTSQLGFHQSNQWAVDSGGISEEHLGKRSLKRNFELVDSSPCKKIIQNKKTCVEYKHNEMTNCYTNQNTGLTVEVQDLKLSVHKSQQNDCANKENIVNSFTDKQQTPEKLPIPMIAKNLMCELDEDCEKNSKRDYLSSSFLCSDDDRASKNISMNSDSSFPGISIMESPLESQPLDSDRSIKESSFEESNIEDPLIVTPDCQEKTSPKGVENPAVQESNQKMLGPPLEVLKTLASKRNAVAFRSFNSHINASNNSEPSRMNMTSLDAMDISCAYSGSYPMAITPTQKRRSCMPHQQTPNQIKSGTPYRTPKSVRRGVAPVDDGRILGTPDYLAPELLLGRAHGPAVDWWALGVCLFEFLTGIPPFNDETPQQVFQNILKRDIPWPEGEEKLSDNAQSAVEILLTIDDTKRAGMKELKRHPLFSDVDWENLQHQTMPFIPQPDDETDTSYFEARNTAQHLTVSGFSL

340 wild-type kinases [8] = target: T8, 340 wild-type kinases (Homo sapiens, UniProt P06213)
T8 construct: purchased Reaction Biology Europe
T8 sequence (P06213 28-1382): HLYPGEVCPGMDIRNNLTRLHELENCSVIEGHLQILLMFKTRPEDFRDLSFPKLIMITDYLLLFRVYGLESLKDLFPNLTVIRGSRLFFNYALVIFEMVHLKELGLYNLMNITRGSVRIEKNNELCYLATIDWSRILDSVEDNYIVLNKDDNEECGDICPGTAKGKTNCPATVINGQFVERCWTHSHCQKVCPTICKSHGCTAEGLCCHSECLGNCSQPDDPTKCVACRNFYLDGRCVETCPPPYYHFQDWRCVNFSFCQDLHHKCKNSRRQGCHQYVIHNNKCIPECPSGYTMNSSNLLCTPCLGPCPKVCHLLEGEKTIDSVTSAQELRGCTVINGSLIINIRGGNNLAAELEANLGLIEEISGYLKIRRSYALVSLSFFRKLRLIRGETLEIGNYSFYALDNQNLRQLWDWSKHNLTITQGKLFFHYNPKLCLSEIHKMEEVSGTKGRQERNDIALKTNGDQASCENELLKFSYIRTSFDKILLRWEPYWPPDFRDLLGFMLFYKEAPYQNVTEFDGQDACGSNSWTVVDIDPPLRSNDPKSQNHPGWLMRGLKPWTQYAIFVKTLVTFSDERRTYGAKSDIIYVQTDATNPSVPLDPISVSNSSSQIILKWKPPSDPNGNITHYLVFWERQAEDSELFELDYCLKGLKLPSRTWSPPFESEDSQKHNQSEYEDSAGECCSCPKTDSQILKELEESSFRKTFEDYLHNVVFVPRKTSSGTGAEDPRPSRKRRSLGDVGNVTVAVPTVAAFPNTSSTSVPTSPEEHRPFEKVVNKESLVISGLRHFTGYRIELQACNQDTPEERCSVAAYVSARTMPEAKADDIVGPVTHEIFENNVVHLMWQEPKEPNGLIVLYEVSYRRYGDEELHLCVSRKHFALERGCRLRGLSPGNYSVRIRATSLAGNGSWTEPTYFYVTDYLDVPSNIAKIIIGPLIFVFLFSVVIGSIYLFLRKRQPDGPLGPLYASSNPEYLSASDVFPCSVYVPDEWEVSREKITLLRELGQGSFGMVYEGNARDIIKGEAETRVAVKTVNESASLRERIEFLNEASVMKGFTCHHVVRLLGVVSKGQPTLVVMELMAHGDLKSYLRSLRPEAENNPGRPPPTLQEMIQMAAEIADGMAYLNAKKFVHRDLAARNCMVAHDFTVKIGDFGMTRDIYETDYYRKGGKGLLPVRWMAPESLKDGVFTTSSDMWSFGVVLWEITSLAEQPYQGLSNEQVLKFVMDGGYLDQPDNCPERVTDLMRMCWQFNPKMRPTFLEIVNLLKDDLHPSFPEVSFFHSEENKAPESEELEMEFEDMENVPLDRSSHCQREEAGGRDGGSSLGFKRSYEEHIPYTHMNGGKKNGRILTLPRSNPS

340 wild-type kinases [9] = target: T9, 340 wild-type kinases (Homo sapiens, UniProt P30291)
T9 construct: purchased Reaction Biology Europe

340 wild-type kinases [10] = target: T10, 340 wild-type kinases (Homo sapiens, UniProt Q9UEE5)
T10 construct: purchased Reaction Biology Europe
T10 sequence (Q9UEE5 1-414): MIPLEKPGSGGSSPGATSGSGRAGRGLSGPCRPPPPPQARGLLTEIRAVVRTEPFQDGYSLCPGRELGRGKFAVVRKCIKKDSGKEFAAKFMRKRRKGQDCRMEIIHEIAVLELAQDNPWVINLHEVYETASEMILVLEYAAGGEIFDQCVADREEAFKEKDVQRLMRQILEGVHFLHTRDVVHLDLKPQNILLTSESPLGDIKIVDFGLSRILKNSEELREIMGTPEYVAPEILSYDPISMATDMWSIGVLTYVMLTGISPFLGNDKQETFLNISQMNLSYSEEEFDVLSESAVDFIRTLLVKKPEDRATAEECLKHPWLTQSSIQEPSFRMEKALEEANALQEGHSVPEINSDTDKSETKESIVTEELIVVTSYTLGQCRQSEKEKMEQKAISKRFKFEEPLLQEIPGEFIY

CNC(=O)c1ccc2c(c1)C(=O)c1ccc(Nc3ccc(F)c(NC(=O)C4CC4)c3)cc1CC2 [Compound 2015]
remaining activity at 0.2 µM (340 wild-type kinases [1]; 0.2 µM 2015, read-out: RON residual activity): 97% | remaining activity at 1 µM (340 wild-type kinases [1]; 1 µM 2015, read-out: RON residual activity): 101% | remaining activity at 0.2 µM (340 wild-type kinases [1]; RON, 0.2 µM, read-out: residual activity): 97% | remaining activity at 1 µM (340 wild-type kinases [1]; RON, 1 µM, read-out: residual activity): 101% | remaining activity at 0.2 µM (340 wild-type kinases [2]; 0.2 µM 2015, read-out: SIK3 residual activity): 101% | remaining activity at 1 µM (340 wild-type kinases [2]; 1 µM 2015, read-out: SIK3 residual activity): 95.7% | remaining activity at 0.2 µM (340 wild-type kinases [2]; SIK3, 0.2 µM, read-out: residual activity): 101% | remaining activity at 1 µM (340 wild-type kinases [2]; SIK3, 1 µM, read-out: residual activity): 95.7% | remaining activity at 0.2 µM (340 wild-type kinases [3]; 0.2 µM 2015, read-out: MAP3K11 residual activity): 100% | remaining activity at 1 µM (340 wild-type kinases [3]; 1 µM 2015, read-out: MAP3K11 residual activity): 93.8% | remaining activity at 0.2 µM (340 wild-type kinases [3]; MAP3K11, 0.2 µM, read-out: residual activity): 100% | remaining activity at 1 µM (340 wild-type kinases [3]; MAP3K11, 1 µM, read-out: residual activity): 93.8% | remaining activity at 0.2 µM (340 wild-type kinases [4]; 0.2 µM 2015, read-out: CAMK1D residual activity): 100% | remaining activity at 1 µM (340 wild-type kinases [4]; 1 µM 2015, read-out: CAMK1D residual activity): 90.6% | remaining activity at 0.2 µM (340 wild-type kinases [4]; CAMK1D, 0.2 µM, read-out: residual activity): 100% | remaining activity at 1 µM (340 wild-type kinases [4]; CAMK1D, 1 µM, read-out: residual activity): 90.6% | remaining activity at 0.2 µM (340 wild-type kinases [5]; 0.2 µM 2015, read-out: TSSK1 residual activity): 125% | remaining activity at 1 µM (340 wild-type kinases [5]; 1 µM 2015, read-out: TSSK1 residual activity): 106% | remaining activity at 0.2 µM (340 wild-type kinases [5]; TSSK1, 0.2 µM, read-out: residual activity): 125% | remaining activity at 1 µM (340 wild-type kinases [5]; TSSK1, 1 µM, read-out: residual activity): 106% | remaining activity at 0.2 µM (340 wild-type kinases [6]; 0.2 µM 2015, read-out: GRK6 residual activity): 111% | remaining activity at 1 µM (340 wild-type kinases [6]; 1 µM 2015, read-out: GRK6 residual activity): 110% | remaining activity at 0.2 µM (340 wild-type kinases [6]; GRK6, 0.2 µM, read-out: residual activity): 111% | remaining activity at 1 µM (340 wild-type kinases [6]; GRK6, 1 µM, read-out: residual activity): 110% | remaining activity at 0.2 µM (340 wild-type kinases [7]; 0.2 µM 2015, read-out: MASTL residual activity): 101% | remaining activity at 1 µM (340 wild-type kinases [7]; 1 µM 2015, read-out: MASTL residual activity): 93.3% | remaining activity at 0.2 µM (340 wild-type kinases [7]; MASTL, 0.2 µM, read-out: residual activity): 101% | remaining activity at 1 µM (340 wild-type kinases [7]; MASTL, 1 µM, read-out: residual activity): 93.3% | remaining activity at 0.2 µM (340 wild-type kinases [8]; 0.2 µM 2015, read-out: INSR residual activity): 99.9% | remaining activity at 1 µM (340 wild-type kinases [8]; 1 µM 2015, read-out: INSR residual activity): 99.3% | remaining activity at 0.2 µM (340 wild-type kinases [8]; INSR, 0.2 µM, read-out: residual activity): 99.9% | remaining activity at 1 µM (340 wild-type kinases [8]; INSR, 1 µM, read-out: residual activity): 99.3% | remaining activity at 0.2 µM (340 wild-type kinases [9]; 0.2 µM 2015, read-out: WEE1 residual activity): 91.7% | remaining activity at 1 µM (340 wild-type kinases [9]; 1 µM 2015, read-out: WEE1 residual activity): 83.3% | remaining activity at 0.2 µM (340 wild-type kinases [9]; WEE1, 0.2 µM, read-out: residual activity): 91.7% | remaining activity at 1 µM (340 wild-type kinases [9]; WEE1, 1 µM, read-out: residual activity): 83.3% | remaining activity at 0.2 µM (340 wild-type kinases [10]; 0.2 µM 2015, read-out: STK17A residual activity): 109% | remaining activity at 1 µM (340 wild-type kinases [10]; 1 µM 2015, read-out: STK17A residual activity): 97.8% | remaining activity at 0.2 µM (340 wild-type kinases [10]; STK17A, 0.2 µM, read-out: residual activity): 109% | remaining activity at 1 µM (340 wild-type kinases [10]; STK17A, 1 µM, read-out: residual activity): 97.8%
